Results from ChEMBL document CHEMBL4507310, “Data for DCP probe A-1211212” (2021).

Legend:
[1] = target: Uncharacterized serine/threonine-protein kinase SBK3 (Homo sapiens) (UniProt P0C264); settings: Compound concentration 1000.0 nM
[2] = target: Serine/threonine-protein kinase 17A (Homo sapiens) (UniProt Q9UEE5); settings: Compound concentration 1000.0 nM
[3] = target: T1, 5-hydroxytryptamine receptor 2C (Homo sapiens) (UniProt P28335); experiment: 5-HT2C (h) Eurofins-Cerep binding assay; design: ligand concentration 1 nM; settings: filed as antagonist, Compound concentration 10.0 uM
T1 sequence (whole entry): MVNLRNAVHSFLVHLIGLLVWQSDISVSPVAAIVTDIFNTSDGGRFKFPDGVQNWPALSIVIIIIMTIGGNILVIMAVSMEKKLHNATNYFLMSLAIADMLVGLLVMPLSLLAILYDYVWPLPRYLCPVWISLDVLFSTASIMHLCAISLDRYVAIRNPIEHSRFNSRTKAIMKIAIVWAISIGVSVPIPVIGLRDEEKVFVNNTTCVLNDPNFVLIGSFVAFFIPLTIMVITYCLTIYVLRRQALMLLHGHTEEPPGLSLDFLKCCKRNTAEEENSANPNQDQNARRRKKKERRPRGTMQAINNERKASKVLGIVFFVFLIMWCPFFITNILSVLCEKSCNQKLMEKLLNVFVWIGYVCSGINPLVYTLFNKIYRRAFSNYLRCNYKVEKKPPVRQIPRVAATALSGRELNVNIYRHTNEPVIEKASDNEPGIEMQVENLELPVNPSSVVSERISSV

[4] = target: Calcitonin-gene-related peptide receptor, CALCRL/RAMP1 (Homo sapiens) (UniProt O60894+Q16602); experiment: CGRP (h) Eurofins-Cerep binding assay; assay type: protein-complex assay; design: ligand concentration 0.03 nM; settings: filed as agonist, Compound concentration 10.0 uM
[5] = system: Epidermal growth factor receptor (Homo sapiens), P00533 [UNDEFINED MUTATION]; settings: Compound concentration 1000.0 nM
[6] = system: Epidermal growth factor receptor (Homo sapiens), P00533 [L861Q]; settings: Compound concentration 1000.0 nM
[7] = target: Serine/threonine-protein kinase PLK3 (Homo sapiens) (UniProt Q9H4B4); settings: Compound concentration 1000.0 nM
[8] = target: Activated CDC42 kinase 1 (Homo sapiens) (UniProt Q07912); settings: Compound concentration 1000.0 nM
[9] = target: Mitogen-activated protein kinase kinase kinase kinase 3 (Homo sapiens) (UniProt Q8IVH8); settings: Compound concentration 1000.0 nM
[10] = target: Cyclin-dependent kinase 9 (Homo sapiens) (UniProt P50750); settings: Compound concentration 1000.0 nM
[11] = target: Serine/threonine-protein kinase Chk1 (Homo sapiens) (UniProt O14757); settings: Compound concentration 1000.0 nM
[12] = target: Mitogen-activated protein kinase 11 (Homo sapiens) (UniProt Q15759); settings: Compound concentration 1000.0 nM
[13] = target: Cyclin-dependent kinase 19 (Homo sapiens) (UniProt Q9BWU1); settings: Compound concentration 1000.0 nM
[14] = target: Mitogen-activated protein kinase 15 (Homo sapiens) (UniProt Q8TD08); settings: Compound concentration 1000.0 nM
[15] = target: Tyrosine-protein kinase receptor UFO (Homo sapiens) (UniProt P30530); settings: Compound concentration 1000.0 nM
[16] = target: Fibroblast growth factor receptor 1 (Homo sapiens) (UniProt P11362); settings: Compound concentration 1000.0 nM
[17] = target: Serine/threonine-protein kinase PAK 3 (Homo sapiens) (UniProt O75914); settings: Compound concentration 1000.0 nM
[18] = target: Serine/threonine-protein kinase B-raf (Homo sapiens) (UniProt P15056); settings: Compound concentration 1000.0 nM
[19] = target: Phosphatidylinositol 4-phosphate 5-kinase type-1 gamma (Homo sapiens) (UniProt O60331); settings: Compound concentration 1000.0 nM
[20] = target: Calcium/calmodulin-dependent protein kinase type 1 (Homo sapiens) (UniProt Q14012); settings: Compound concentration 1000.0 nM
[21] = target: Death-associated protein kinase 1 (Homo sapiens) (UniProt P53355); settings: Compound concentration 1000.0 nM
[22] = system: Epidermal growth factor receptor (Homo sapiens), P00533 [G719S]; settings: Compound concentration 1000.0 nM
[23] = target: Receptor tyrosine-protein kinase erbB-2 (Homo sapiens) (UniProt P04626); settings: Compound concentration 1000.0 nM
[24] = target: Atypical kinase COQ8A, mitochondrial (Homo sapiens) (UniProt Q8NI60); settings: Compound concentration 1000.0 nM
[25] = system: Fibroblast growth factor receptor 3 (Homo sapiens), P22607 [G697C]; settings: Compound concentration 1000.0 nM
[26] = target: TGF-beta receptor type-1 (Homo sapiens) (UniProt P36897); settings: Compound concentration 1000.0 nM
[27] = target: Dual specificity tyrosine-phosphorylation-regulated kinase 1B (Homo sapiens) (UniProt Q9Y463); settings: Compound concentration 1000.0 nM
[28] = target: T2, 5-hydroxytryptamine receptor 3A (Homo sapiens) (UniProt P46098); experiment: 5-HT3 (h) Eurofins-Cerep binding assay; design: ligand concentration 0.5 nM; settings: filed as antagonist, Compound concentration 10.0 uM
T2 sequence (whole entry): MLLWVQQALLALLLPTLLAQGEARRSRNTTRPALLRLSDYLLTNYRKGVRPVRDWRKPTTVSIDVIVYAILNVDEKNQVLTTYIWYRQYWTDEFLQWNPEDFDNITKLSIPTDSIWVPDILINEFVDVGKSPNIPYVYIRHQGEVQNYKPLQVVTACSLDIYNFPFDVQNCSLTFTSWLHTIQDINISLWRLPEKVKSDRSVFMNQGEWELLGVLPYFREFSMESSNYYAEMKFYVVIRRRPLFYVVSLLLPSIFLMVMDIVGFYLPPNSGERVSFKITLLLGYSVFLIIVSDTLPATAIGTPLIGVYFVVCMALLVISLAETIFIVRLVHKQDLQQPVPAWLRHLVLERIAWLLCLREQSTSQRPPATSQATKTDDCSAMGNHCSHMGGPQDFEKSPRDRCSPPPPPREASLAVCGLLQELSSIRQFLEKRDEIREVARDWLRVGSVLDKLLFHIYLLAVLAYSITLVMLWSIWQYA

[29] = target: Endothelin-1 receptor (Homo sapiens) (UniProt P25101); experiment: ETA (h) Eurofins-Cerep binding assay; design: ligand concentration 0.03 nM; settings: filed as agonist, Compound concentration 10.0 uM
[30] = target: Homeodomain-interacting protein kinase 1 (Homo sapiens) (UniProt Q86Z02); settings: Compound concentration 1000.0 nM
[31] = target: Serine/threonine-protein kinase DCLK3 (Homo sapiens) (UniProt Q9C098); settings: Compound concentration 1000.0 nM
[32] = system: Serine/threonine-protein kinase B-raf (Homo sapiens), P15056 [V600E]; settings: Compound concentration 1000.0 nM
Serine/threonine-protein kinase B-raf (Homo sapiens), P15056 [V600E], sequence (P15056 whole entry V600E): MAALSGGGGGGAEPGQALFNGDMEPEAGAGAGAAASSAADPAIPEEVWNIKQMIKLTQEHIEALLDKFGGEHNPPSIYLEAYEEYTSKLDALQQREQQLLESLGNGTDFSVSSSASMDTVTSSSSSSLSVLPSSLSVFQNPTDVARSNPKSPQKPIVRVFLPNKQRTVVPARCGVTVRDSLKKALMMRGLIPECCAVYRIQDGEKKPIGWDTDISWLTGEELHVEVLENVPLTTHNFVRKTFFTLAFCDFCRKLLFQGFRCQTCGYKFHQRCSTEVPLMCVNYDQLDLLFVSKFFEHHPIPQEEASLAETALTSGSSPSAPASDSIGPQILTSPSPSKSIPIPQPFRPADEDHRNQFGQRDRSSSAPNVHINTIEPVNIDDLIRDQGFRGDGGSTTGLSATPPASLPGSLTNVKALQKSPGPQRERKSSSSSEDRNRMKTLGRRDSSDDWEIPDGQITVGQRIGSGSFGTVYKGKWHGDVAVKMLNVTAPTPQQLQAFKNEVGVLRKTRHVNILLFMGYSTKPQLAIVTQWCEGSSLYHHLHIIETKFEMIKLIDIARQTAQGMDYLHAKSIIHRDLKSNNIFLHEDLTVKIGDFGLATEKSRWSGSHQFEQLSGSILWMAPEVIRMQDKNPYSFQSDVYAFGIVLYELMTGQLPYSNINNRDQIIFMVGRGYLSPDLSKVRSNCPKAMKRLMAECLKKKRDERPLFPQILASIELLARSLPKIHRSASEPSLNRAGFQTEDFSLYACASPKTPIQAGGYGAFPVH

Serine/threonine-protein kinase PLK3 (Homo sapiens), sequence (Q9H4B4 whole entry, looked up): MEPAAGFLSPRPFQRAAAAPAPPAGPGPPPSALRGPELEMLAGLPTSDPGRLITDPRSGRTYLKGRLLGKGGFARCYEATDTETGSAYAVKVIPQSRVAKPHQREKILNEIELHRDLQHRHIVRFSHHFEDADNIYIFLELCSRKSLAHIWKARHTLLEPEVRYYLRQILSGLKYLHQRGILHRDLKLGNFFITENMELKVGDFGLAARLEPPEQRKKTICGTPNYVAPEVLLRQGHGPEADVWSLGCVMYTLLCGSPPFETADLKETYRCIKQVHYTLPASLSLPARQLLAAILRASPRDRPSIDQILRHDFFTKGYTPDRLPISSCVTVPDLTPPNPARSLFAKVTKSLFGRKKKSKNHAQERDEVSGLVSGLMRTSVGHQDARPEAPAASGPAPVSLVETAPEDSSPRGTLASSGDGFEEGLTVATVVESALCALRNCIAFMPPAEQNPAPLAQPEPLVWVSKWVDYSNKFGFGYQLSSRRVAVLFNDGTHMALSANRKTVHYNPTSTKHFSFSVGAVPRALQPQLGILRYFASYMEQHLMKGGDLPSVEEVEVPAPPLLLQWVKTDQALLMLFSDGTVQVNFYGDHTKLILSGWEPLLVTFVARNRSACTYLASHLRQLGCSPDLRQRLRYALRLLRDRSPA
Serine/threonine-protein kinase 17A (Homo sapiens), sequence (Q9UEE5 whole entry): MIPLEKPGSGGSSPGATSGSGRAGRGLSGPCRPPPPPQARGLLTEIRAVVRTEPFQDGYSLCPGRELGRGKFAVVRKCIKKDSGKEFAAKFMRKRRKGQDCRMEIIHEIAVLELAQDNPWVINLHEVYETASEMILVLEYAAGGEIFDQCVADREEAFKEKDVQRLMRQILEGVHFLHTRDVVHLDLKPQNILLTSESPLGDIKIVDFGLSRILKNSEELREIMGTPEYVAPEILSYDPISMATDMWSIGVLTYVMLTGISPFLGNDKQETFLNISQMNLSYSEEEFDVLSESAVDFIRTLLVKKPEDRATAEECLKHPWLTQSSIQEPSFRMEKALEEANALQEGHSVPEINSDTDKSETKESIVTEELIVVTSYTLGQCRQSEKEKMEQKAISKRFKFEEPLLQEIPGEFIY
Atypical kinase COQ8A, mitochondrial (Homo sapiens), sequence (Q8NI60 163-647 limits assumed): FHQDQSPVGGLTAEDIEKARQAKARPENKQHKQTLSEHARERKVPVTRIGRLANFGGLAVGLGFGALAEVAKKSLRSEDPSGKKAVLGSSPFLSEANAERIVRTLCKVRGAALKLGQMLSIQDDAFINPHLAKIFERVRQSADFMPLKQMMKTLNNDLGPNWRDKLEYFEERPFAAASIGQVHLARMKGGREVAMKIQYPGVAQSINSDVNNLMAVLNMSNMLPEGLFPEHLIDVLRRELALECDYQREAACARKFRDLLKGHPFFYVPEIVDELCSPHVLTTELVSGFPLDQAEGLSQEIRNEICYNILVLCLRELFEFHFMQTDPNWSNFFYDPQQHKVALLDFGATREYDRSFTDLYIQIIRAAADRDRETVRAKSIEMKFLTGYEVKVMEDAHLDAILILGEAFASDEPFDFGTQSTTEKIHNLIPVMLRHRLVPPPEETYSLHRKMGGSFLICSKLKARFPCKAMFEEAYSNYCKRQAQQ
Homeodomain-interacting protein kinase 1 (Homo sapiens), sequence (Q86Z02 whole entry, looked up): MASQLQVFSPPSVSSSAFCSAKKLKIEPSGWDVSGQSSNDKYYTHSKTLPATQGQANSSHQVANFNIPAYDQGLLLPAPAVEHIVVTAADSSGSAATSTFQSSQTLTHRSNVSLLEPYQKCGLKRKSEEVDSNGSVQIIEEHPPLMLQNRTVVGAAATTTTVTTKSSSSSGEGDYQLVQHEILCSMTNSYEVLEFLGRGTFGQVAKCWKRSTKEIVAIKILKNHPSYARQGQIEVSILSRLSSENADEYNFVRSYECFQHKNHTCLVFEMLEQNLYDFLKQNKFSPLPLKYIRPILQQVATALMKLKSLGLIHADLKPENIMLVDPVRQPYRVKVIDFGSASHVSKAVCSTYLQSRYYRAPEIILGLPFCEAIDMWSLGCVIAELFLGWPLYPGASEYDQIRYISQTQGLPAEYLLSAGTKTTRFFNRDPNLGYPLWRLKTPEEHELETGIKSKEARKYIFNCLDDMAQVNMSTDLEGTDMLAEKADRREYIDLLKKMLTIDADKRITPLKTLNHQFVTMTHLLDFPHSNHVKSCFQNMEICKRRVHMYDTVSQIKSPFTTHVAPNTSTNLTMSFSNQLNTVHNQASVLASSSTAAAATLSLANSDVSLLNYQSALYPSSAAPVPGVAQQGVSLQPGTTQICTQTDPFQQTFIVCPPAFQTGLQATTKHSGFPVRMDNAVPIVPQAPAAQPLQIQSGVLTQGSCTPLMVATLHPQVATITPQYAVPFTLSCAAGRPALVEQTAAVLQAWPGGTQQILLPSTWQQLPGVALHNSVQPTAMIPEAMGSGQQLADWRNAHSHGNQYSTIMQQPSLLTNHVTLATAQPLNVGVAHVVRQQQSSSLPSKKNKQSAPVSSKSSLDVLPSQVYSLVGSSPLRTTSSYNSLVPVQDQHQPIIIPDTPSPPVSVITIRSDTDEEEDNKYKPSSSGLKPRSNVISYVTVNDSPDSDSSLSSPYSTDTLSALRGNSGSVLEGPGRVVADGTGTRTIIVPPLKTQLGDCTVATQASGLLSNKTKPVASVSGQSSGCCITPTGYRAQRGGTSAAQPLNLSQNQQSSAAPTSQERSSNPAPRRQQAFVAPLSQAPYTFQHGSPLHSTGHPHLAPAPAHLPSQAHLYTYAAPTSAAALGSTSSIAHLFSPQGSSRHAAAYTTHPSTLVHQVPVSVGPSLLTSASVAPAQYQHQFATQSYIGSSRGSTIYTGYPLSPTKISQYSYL
Mitogen-activated protein kinase 11 (Homo sapiens), sequence (Q15759 whole entry): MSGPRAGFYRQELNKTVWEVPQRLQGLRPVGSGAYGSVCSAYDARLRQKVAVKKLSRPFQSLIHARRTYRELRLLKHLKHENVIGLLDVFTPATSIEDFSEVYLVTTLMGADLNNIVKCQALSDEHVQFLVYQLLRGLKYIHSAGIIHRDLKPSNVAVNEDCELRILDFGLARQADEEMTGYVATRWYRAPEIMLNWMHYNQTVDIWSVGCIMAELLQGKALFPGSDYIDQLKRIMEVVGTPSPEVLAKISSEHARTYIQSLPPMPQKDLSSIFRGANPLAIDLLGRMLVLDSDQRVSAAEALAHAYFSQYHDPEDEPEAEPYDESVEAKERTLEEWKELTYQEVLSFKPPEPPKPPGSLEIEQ
Phosphatidylinositol 4-phosphate 5-kinase type-1 gamma (Homo sapiens), sequence (O60331 whole entry): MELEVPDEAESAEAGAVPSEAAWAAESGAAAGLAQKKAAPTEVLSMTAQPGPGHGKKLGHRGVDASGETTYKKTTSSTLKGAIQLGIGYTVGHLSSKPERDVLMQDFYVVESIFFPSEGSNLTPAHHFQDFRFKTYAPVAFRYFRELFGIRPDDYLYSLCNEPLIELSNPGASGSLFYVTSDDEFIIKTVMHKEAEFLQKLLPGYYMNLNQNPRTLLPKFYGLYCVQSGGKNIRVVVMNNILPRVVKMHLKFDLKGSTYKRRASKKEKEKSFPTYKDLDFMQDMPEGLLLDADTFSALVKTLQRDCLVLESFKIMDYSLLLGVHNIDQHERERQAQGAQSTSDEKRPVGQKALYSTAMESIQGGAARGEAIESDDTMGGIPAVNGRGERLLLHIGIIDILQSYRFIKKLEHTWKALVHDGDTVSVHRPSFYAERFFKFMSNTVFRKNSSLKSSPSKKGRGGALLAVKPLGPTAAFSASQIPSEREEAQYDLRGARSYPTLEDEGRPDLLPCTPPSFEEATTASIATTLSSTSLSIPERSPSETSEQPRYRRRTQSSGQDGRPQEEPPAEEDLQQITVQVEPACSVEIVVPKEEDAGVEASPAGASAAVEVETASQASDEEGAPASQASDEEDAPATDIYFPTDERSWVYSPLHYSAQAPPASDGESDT
Serine/threonine-protein kinase B-raf (Homo sapiens), sequence (P15056 whole entry): as the sequence (P15056 whole entry V600E) above, with E600V counted along it
Cyclin-dependent kinase 9 (Homo sapiens), sequence (P50750 whole entry): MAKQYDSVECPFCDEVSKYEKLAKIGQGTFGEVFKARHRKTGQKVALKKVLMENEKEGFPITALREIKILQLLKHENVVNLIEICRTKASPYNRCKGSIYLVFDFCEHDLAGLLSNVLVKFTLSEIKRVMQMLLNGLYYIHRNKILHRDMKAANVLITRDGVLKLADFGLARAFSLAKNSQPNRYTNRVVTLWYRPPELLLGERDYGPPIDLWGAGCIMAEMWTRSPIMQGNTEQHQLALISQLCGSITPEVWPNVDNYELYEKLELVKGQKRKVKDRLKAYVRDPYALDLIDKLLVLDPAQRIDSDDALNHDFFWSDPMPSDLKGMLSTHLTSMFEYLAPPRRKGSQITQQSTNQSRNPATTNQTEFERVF

| Structure (SMILES) | residual activity [1] | residual activity [2] | % Inhibition of Control Specific Binding (Mean n=2) [3] | % Inhibition of Control Specific Binding (Mean n=2) [4] | residual activity [5] | residual activity [6] | residual activity [7] | residual activity [8] | residual activity [9] | residual activity [10] | residual activity [11] | residual activity [12] | residual activity [13] | residual activity [14] | residual activity [15] | residual activity [16] | residual activity [17] | residual activity [18] | residual activity [19] | residual activity [20] | further results |
| --- | --- | --- | --- | --- | --- | --- | --- | --- | --- | --- | --- | --- | --- | --- | --- | --- | --- | --- | --- | --- | --- |
| O=C(NS(=O)(=O)c1ccc(NCC2CCOCC2)c([N+](=O)[O-])c1)c1ccc(N2CCN(Cc3ccc(C(F)(F)F)cc3-c3ccc(Cl)cc3)CC2)cc1Oc1cnc2[nH]ccc2c1 [A-1210227] | 100% | 100% | 3.7% | -57.7% | 96% | 93% | 100% | 100% | 92% | 100% | 100% | 78% | 90% | 94% | 88% | 91% | 77% | 100% | 100% | 100% | residual activity [21]: 100%; residual activity [22]: 76%; residual activity [23]: 100%; residual activity [24]: 100%; residual activity [25]: 100%; residual activity [26]: 93%; residual activity [27]: 80%; % Inhibition of Control Specific Binding (Mean n=2) [28]: 0.2%; % Inhibition of Control Specific Binding (Mean n=2) [29]: -7.6%; residual activity [30]: 84%; residual activity [31]: 93%; residual activity [32]: 83% |
| CO[C@H]1CC[C@H](CNc2ccc(S(=O)(=O)NC(=O)c3ccc(N4CCN(CC5=C(c6ccc(Cl)cc6)CC(C)(C)CC5)CC4)cc3Oc3cnc4[nH]ccc4c3)cc2[N+](=O)[O-])CC1 [A-1211212] | 83% | 88% | -4.1% | -8% | 100% | 70% | 100% | 96% | 99% | 91% | 90% | 60% | 73% | 85% | 94% | 68% | 64% | 100% | 100% | 88% | residual activity [21]: 73%; residual activity [22]: 65%; residual activity [23]: 54%; residual activity [24]: 99%; residual activity [25]: 100%; residual activity [26]: 84%; residual activity [27]: 71%; % Inhibition of Control Specific Binding (Mean n=2) [28]: -6.1%; % Inhibition of Control Specific Binding (Mean n=2) [29]: 2.5%; residual activity [30]: 61%; residual activity [31]: 84%; residual activity [32]: 93% |
